# Data: patent publication US7960374B2, “Tricyclic compounds, compositions, and methods useful in the treatment or prophylaxis of 5-HT6 receptor-related disorders” (Proximagen Limited, priority 2006, dated 2011)
# Tests used:
# human 5-HT6 receptor [1] = molecular target: T1, human 5-HT6 receptor (Homo sapiens, UniProt P50406); assay: 5-HT6 intrinsic activity assay (inhibition of 5-HT induced increase in cAMP); format: cell-based; details: read-out: Antagonist potency at the human 5-HT6 receptor, fKi (= IC50,corr)
# T1 construct: expressed in transfected cells; host or cells: HEK293
# T1 sequence (P50406 whole entry): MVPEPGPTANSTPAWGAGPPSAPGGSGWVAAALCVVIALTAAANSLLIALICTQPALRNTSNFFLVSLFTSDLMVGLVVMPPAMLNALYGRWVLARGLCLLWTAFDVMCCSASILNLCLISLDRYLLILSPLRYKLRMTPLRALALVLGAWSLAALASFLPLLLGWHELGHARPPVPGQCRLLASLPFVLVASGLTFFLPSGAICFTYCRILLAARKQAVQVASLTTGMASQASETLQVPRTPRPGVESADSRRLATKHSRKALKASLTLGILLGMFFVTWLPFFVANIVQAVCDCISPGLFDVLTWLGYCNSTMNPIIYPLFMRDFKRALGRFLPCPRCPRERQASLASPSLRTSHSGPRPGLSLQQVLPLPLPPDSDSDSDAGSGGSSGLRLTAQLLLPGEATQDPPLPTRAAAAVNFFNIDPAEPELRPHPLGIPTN
# Protocol: (b) 5-HT6 Intrinsic Activity Assay
# Briefly, HEK293/5-HT6 cells were seeded in polylysine coated 96-well plates at a density of 25,000/well and grown in DMEM (Dulbecco's Modified Eagle Medium) (without phenol-red) containing 5% dialyzed Foetal Bovine Serum for 48 h at 37° C. in a 5% CO2 incubator. The medium was then aspirated and replaced by 0.1 ml assay medium (Hanks Balance Salt Solution containing 20 mM HEPES, 1.5 mM isobutylmethylxanthine and 1 mg/ml bovine serum albumin). After addition of test substances, 50 μl dissolved in assay medium, the cells were incubated for 10 min at 37° C. in a 5% CO2 incubator. The medium was again aspirated and the cAMP content was determined using a radioactive cAMP kit (Amersham Pharmacia Biotech, BIOTRAK RPA559).
# human 5-HT6 receptor [2] = molecular target: T1, human 5-HT6 receptor; assay: 5-HT6 receptor binding assay ([3H]-LSD, SPA); details: for Ki: [3H]-LSD as labeled ligand, membranes of HEK293 cells expressing human 5-HT6, read-out: Binding affinity (Ki) at the human 5-HT6 receptor
IC50 (human 5-HT6 receptor [1]) [nM],Ki (human 5-HT6 receptor [2]) [nM],Hill coefficient (human 5-HT6 receptor [2]; three experiments),SMILES
3,2,,"CN1CCOc2ccc3c(ccn3S(=O)(=O)c3ccccc3)c2C1 [Example 5, 2-Methyl-8-(phenylsulfonyl)-1,3,4,8-tetrahydro-2H-[1,4]oxazepino[6,7-e]indole]"
5,2,,"O=S(=O)(c1ccccc1)n1ccc2c3c(ccc21)OCCNC3 [Example 49, 8-(Phenylsulfonyl)-1,3,4,8-tetrahydro-2H-[1,4]oxazepino[6,7-e]indole]"
1,1,,"CN1CCOc2ccc3c(ccn3S(=O)(=O)c3ccc4ncsc4c3)c2C1 [Example 10, 8-(1,3-Benzothiazol-6-ylsulfonyl)-2-methyl-1,3,4,8-tetrahydro-2H-[1,4]oxazepino[6,7-e]indole]"
,,0.94 (SD 0.09),"NCCc1c[nH]c2ccc(O)cc12 [Example 5-HT, 5-hydroxytryptamine, reference compound]"
